In test [1] the test system is rat adjuvant arthritis model. The experiment in a line: Rat adjuvant arthritis model. The conditions noted are these: for Bone destruction score / Bone destruction score (% inhibition): Table 2; for Bone destruction score: soft X-ray of calcaneus, adjuvant-untreated paw, day 21, maximum 5, mean ± standard error, oral comparators; for Bone destruction score (% inhibition) / inhibition of the increase in paw volume, adjuvant-untreated paw: vs solvent group; for inhibition of the increase in paw volume, adjuvant-untreated paw: day 21, oral, 1 mL per 100 g: sodium diclofenac 0.3 mg/mL, methotrexate 0.01 mg/mL, prednisolone 0.3 mg/mL; for inhibition of the increase (decrease) in amount of glycosaminoglycan in urine / inhibition of the increase (decrease) in amount of deoxypyridinoline in urine: urine day 20 to 21, oral comparators vs solvent group; for inhibition of the increase (decrease) in amount of glycosaminoglycan in urine: diclofenac and prednisolone not significant; for inhibition of the increase (decrease) in amount of deoxypyridinoline in urine: methotrexate and prednisolone not significant. The test is classed as in vivo. As to the method: The rat adjuvant arthritis model was performed in the following manner according to the method of Pearson et al. (Pearson CM. et al., Arthritis Rheum., 5, 654-658, 1962) using Lewis rats (female, 8 weeks old, Japan Charles River).
Mycobacterium butyricum (manufactured by Difco) was suspended in a liquid paraffin (manufactured by Wako Pure Chemical Industries, Ltd.) to a final concentration of 6 mg/mL, and sterilized with a autoclave. The resulting solution was intradermally injected into the rat right hind pad in an amount of 100 μL for sensitization. One group consisted of 8 to 10 rats. Anti-FGF-8 neutralizing antibody KM1334 was dissolved in saline to a final concentration of 2 mg/mL. The solution was intraperitoneally administered to a KM1334 administrated group once a day at a dose of 0.5 mL per 100 g of the body weight for each rat on the sensitization day of the rat adjuvant arthritis model and on days 3, 7, 10, 14 and 17 from the sensitization. To saline administrated group, only saline was intraperitoneally administered instead of the anti-FGF-8 neutralizing antibody KM1334 solution. Further, sodium diclofenac, an antiinflammatory agent, was dissolved in a 0.5 w/v % methyl cellulose solution to a final concentration of 0.3 mg/mL, and the solution was orally administered to a sodium diclofenac administrated group as a positive control once a day at a dose of 1 mL per 100 g of the body weight on days 4, 7 to 11 and 14 to 18 from the adjuvant sensitization day. 50 mg of methotrexate® for injection (manufactured by Wyeth Japan) as a metabolic antagonist was dissolved in a 0.5 w/v % methyl cellulose solution to a final concentration of 0.01 mg/mL, and the solution was administered to a methotrexate administrated group in the same manner as in the sodium diclofenac administrated group. Prednisolone (manufactured by Sigma-Aldrich), a steroidal agent, was suspended in a 0.5 w/v % methyl cellulose solution to a final concentration of 0.3 mg/mL, and the suspension was administered to a prednisolone administrated group in the same manner as in the sodium diclofenac administrated group. Further, a 0.5 w/v % methyl cellulose solution alone was orally administered to a solvent administrated group in the same manner. An untreated group was used, and it was not subjected to sensitization with Mycobacterium butyricum and administration of an agent. The volumes of the adjuvant-treated paw and the adjuvant-untreated paw were measured as time goes by using a device for measuring edemas of rat hind paw (TK-101, manufactured by Unicom).
Using urine collected for 24 hours at day 20 and day 21 after the sensitization, the amounts of glycosaminoglycan, deoxypyridinoline, hydroxyproline and creatinine in urine were measured. The amount of glycosaminoglycan in urine was measured by the DMMB method described in Example 1. The amount of hydroxyproline in urine was measured by the method of Ikeda et al. (Ikeda Shingo et al., Tokyo Eiken Nenpo, 36 277-282, 1985). That is, 0.8 mL of hydrochloric acid for amino acid analysis (manufactured by Kanto Kagaku) was added to 0.8 mL of urine to hydrolyze at 110° C. for 15 hours. To 0.5 mL of the hydrolyzed sample was added 2 mL of a 1.2 mol/L sodium hydroxide solution for neutralization. 1 mL of isopropanol was added to 0.5 mL of the neutralized sample, and 1 ml of an oxidant solution was added. The mixture was stirred well, and allowed to stand at room temperature for 5 minutes. […]

For test [2], the target named is T1, compound 1 as a partial peptide of FGF-8 (Homo sapiens, UniProt P55075).
T1 construct: 17; made in house; host or cells: chemical synthesis
T1 sequence (P55075 with tags, fused parts or gaps isoform P55075-3 limits assumed): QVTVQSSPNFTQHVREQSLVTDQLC
The experiment in a line: FGF-8 binding activity by BIAcore 2000, immobilized biotin-labeled compound 1. The conditions noted are these: antibody 16.7 μg/mL; FGF-8 peptide immobilized 35 RU. As to the method:
In order to examine the FGF-8 binding activity of the anti-FGF-8 neutralizing CDR-grafted antibodies obtained in 5. of Reference Example 3, the FGF-8 binding activity of the various anti-FGF-8 neutralizing CDR-grafted antibodies was measured and compared through BIAcore 2000 using compound 1 as a partial peptide of FGF-8 with the C terminal labeled with biotin in the following manner. The anti-FGF-8 neutralizing chimeric antibody KM3034 derived from CHO/DG44 cells obtained in 3. (1) of Reference Example 1 was used as a positive control.
HBS-EP was used as a sample diluent and a buffer during measurement. First, Sensor Chip SA (manufactured by BIACORE) was installed, and 5 μL of compound 1 labeled with biotin which had been adjusted to 0.05 μg/mL was added at a flow rate of 5 μL/min. Then, 5 μL of a 10 mmol/L glycine-hydrochloride solution (pH 1.5) was added twice continuously to wash the tip surface. The immobilization amount of the FGF-8 peptide was 35 RU.
60 μL of each of the antibody solutions was added to an FGF-8 peptide immobilized flow cell at a flow rate of 20 μL/min, and the dissociation reaction was then monitored for 3 minutes. After the dissociation reaction, 20 μL of 10 mmol/L glycine-hydrochloride solution (pH 1.5) was added twice continuously to regenerate the chip surface. This cycle was performed on the antibody solution at various concentrations (from 50 to 1.85 μg/mL) to obtain sensor grams at various concentrations. The sensor grams of the respective antibodies were converted to sensor grams of specific reactions by deduceing a sensor gram obtained using the chimeric antibody KM871 to GD3 as a negative control.
For orientation: Surface plasmon resonance follows binding to a sensor surface in real time, without labels.

Substitutions are numbered along the chain they refer to.

For the molecule `CN(Cc1cnc2nc(N)nc(N)c2n1)c1ccc(C(=O)N[C@@H](CCC(=O)O)C(=O)O)cc1` [methotrexate], in test [1], the Bone destruction score was 0.9 ± 0.4; the “Bone destruction score (% inhibition)” value was determined as 80%; the “inhibition of the increase in paw volume, adjuvant-untreated paw” value turned out to be 90%; the “inhibition of the increase (decrease) in amount of glycosaminoglycan in urine” value amounted to 79%. Besides, the “inhibition of the increase (decrease) in amount of deoxypyridinoline in urine” value in test [1] came out at 34%.
In the same order, the values of `C[C@]12C=CC(=O)C=C1CC[C@@H]1[C@@H]2[C@@H](O)C[C@@]2(C)[C@H]1CC[C@]2(O)C(=O)CO` [prednisolone, Prednisolone] are 1.8 ± 0.7, 61%, 51%, 18% and 38%.

B1: KM3034: anti-FGF-8 neutralizing human chimeric antibody, VH SEQ ID NO. 5, VL SEQ ID NO. 6, human γ1/κ, CHO/DG44 cell-derived (FERM BP-7836) (antibody, listed as Mus musculus, V domains shown)
VH: QVQLQQSGAEVARPGASVKLSCKASGYTFTDYYLNWVKQRSGQGLEWIGEIDPGSDSIYYNENLEGRATLTADKSSSTAYMQLNSLTSEDSAVYFCARYGYSRYDVRFVYWGQGTLVTVST
VL: DVLMTQTPLSLPVSLGDQASISCRSSQSLVHSNGRTYLEWYLQKPGQSPKVLIYKVSNRISGVPDRFSGSGSGTDFTLKISRVEAEDLGVYFCFQGSHVPYTFGGGTKLEIK
Consider B1, for which, in test [2], the “binding reaction [resonance signal (RU)]” value is “the highest binding reaction”.

B2: HV0LV6/CHO: CHO/DG44 cell-derived anti-FGF-8 neutralizing CDR-grafted antibody, VH HV.0 (SEQ ID NO. 18), VL LV.6 (SEQ ID NO. 21) (antibody, V domains shown)
VH: QVQLVQSGAEVKKPGASVKVSCKASGYTFTDYYLNWVRQAPGQGLEWMGEIDPGSDSIYYNENLEGRVTITADTSTSTAYMELSSLRSEDTAVYYCARYGYSRYDVRFVYWGQGTLVTVSS
VL: B1 VL with L3V, T7S, D17E, Q18P, L88V, G105Q, L109V
modifications: HV.0, a designed amino acid sequence of VH of an anti-FGF-8 CDR-grafted neutralizing antibody; LV.6, a designed amino acid sequence of VL of an anti-FGF-8 CDR-grafted neutralizing antibody
Regarding B2, the “binding reaction [resonance signal (RU)]” value in test [2] is listed as “the highest binding reaction”.

B3: HV0LV4-2/CHO: CHO/DG44 cell-derived anti-FGF-8 neutralizing CDR-grafted antibody, VH HV.0, VL LV.4-2 (SEQ ID NO. 43) (antibody, V domains shown)
VH: B2 VH
VL: B1 VL with L3V, T7S, D17E, Q18P, K50Q, V51L, L88V, G105Q, L109V
Turning to B3, the “binding reaction [resonance signal (RU)]” value in test [2] is reported as “the lower binding reaction”.

B4: HV0LV3-2/CHO: CHO/DG44 cell-derived anti-FGF-8 neutralizing CDR-grafted antibody, VH HV.0, VL LV.3-2 (SEQ ID NO. 45) (antibody, V domains shown)
VH: B2 VH
VL: B1 VL with V2I, L3V, T7S, D17E, Q18P, K50Q, V51L, L88V, G105Q, L109V
As to B4, in test [2], the “binding reaction [resonance signal (RU)]” value is “the lower binding reaction”.

B5: HV0LV2-2/CHO: CHO/DG44 cell-derived anti-FGF-8 neutralizing CDR-grafted antibody, VH HV.0, VL LV.2-2 (SEQ ID NO. 47) (antibody, V domains shown)
VH: B2 VH
VL: DVVMTQSPLSLPVTPGEPASISCRSSQSLVHSNGRTYLEWYLQKPGQSPQLLIYKVSNRISGVPDRFSGSGSGTDFTLKISRVEAEDVGVYFCFQGSHVPYTFGQGTKVEIK
As to B5, the “binding reaction [resonance signal (RU)]” value in test [2] is given as “the lower binding reaction”.

B6: HV0LV0/CHO: CHO/DG44 cell-derived anti-FGF-8 neutralizing CDR-grafted antibody, VH HV.0, VL LV.0 (antibody, V domains shown)
VH: B2 VH
VL: B5 VL with V2I, F92Y
In the case of B6, the “binding reaction [resonance signal (RU)]” value in test [2] was “the lowest binding reaction”.

The values above are taken from patent US7708999B2, “Remedies for arthritis” (Kyowa Hakko Kirin Co., Ltd., priority 2001, dated 2010).
